Where no end group is shown, it is not given here.
Columns and labels:
MCF7 breast carcinoma = test: Cytotoxic activity, MTT-assay; assay type: cell-based; conditions: Homo sapiens
Experimental: (§1) Assay procedure—Cells were seeded into 96-well plates at 2,500 cells per well in DMED, containing 10% FCS and antibiotics. After overnight incubation, test compounds were prepared as dilution series in cell medium (addition of dimethylsulfoxide in the case of free paclitaxel to effect partial dissolution) and were added to the cells. For the 1-h exposure samples, incubation was continued for 1 h, cell culture medium supernatants were removed and the wells were further washed with cell culture medium (5×2 min). Total viable cells were quantitated after a total of 72 h incubation using a standard MTT-assay.

A549 lung carcinoma = test: Cytotoxic activity, MTT-assay; assay type: cell-based; conditions: Homo sapiens
Experimental: as §1

CH1Taxol^R = test: Carcinoma cell line panel, SRB-assay; conditions: 96 h, read-out: 96-h IC50 cytotoxicity
Experimental: (§2) After incubation for 96 h, cytotoxicity was assessed using a standard SRB-assay.

LIM1215 = test: Carcinoma cell line panel, SRB-assay; conditions: LIM1215, 96 h, read-out: 96-h IC50 cytotoxicity
Experimental: as §2

DLD-1 = test: Carcinoma cell line panel, SRB-assay; conditions: Homo sapiens, DLD-1, 96 h, read-out: 96-h IC50 cytotoxicity
Experimental: as §2

BE = test: Carcinoma cell line panel, SRB-assay; conditions: 96 h, read-out: 96-h IC50 cytotoxicity
Experimental: as §2

COLO205 = test: Carcinoma cell line panel, SRB-assay; conditions: Homo sapiens, COLO 205, 96 h, read-out: 96-h IC50 cytotoxicity
Experimental: as §2

HCT116 = test: Carcinoma cell line panel, SRB-assay; conditions: Homo sapiens, HCT-116, 96 h, read-out: 96-h IC50 cytotoxicity
Experimental: as §2

SKOV-3 = test: Carcinoma cell line panel, SRB-assay; conditions: Homo sapiens, SK-OV-3, 96 h, read-out: 96-h IC50 cytotoxicity
Experimental: as §2

LS174T = test: Carcinoma cell line panel, SRB-assay; conditions: Homo sapiens, 96 h, read-out: 96-h IC50 cytotoxicity
Experimental: as §2

A2780 = test: Carcinoma cell line panel, SRB-assay; conditions: Homo sapiens, A2780, 96 h, read-out: 96-h IC50 cytotoxicity
Experimental: as §2

A2780Cis^R = test: Carcinoma cell line panel, SRB-assay; conditions: Homo sapiens, A2780cisR, 96 h, read-out: 96-h IC50 cytotoxicity
Experimental: as §2

CH1Dox^R = test: Carcinoma cell line panel, SRB-assay; conditions: 96 h, read-out: 96-h IC50 cytotoxicity
Experimental: as §2

KM12 = test: Carcinoma cell line panel, SRB-assay; conditions: Homo sapiens, KM12, 96 h, read-out: 96-h IC50 cytotoxicity
Experimental: as §2

CH1 = test: Carcinoma cell line panel, SRB-assay; conditions: Homo sapiens, CH1, 96 h, read-out: 96-h IC50 cytotoxicity
Experimental: as §2

HT29 = test: Carcinoma cell line panel, SRB-assay; conditions: Homo sapiens, HT-29, 96 h, read-out: 96-h IC50 cytotoxicity
Experimental: as §2

HL60 cells = test: Intracellular stability; assay type: in vitro ADME; conditions: 15 μM for 1 h, washed, 1 additional h neat medium
Experimental: After the incubation, cells were washed extensively with PBS until no test compound was detectable in the washes. Cells were incubated for one additional h with neat medium. Afterwards the cells were pelleted, resuspended in 50 mM Tris pH 7.5, containing a cocktail of protease inhibitors and they were solubilised by ultrasonication for 1 min. The insoluble fraction was pelleted for 15 min using an Eppendorf centrifuge and the supernatant was analysed by anal. RP-HPLC (0-60% MeCN gradient, λ=254 nm).

[1] = Serum stability of drug-ester linkages; assay type: in vitro ADME; conditions: bovine, 10% FCS in DMEM, 1 to 40 μM, 37° C., appearance of free drug, read-out: Serum t1/2 of Drug-Linker Ester bond
Experimental: Hydrolysis of the ester bonds between the drug hydroxy groups and the linker carboxyl groups was assessed by appearance of free podophyllotoxin or paclitaxel.

[2] = Serum stability of peptide vectors; conditions: for half-life: bovine, serum
Experimental: Test compounds were dissolved in cell-conditioned tissue culture medium (10% FCS in DMEM) at concentrations varying from 1 to 40 μM. The solutions were incubated at 37° C. and samples were withdrawn at intervals. After filtration, aliquots were analysed by RP-HPLC (using a photodiode array UV detector). Intact vectors were identified by reference to chromatograms obtained with authentic peptides and by DE MALDI-TOF analysis of appropriate peak fractions. […] The latter was chosen preferentially in order to replicate the conditions used for cytotoxicity assays on cell cultures.

[3] = biological target: purified recombinant human topoisomerase II (Homo sapiens, UniProt P11388); test: Topoisomerase II inhibition assay (cleavage and relaxation); assay type: biochemical; conditions: test compound at 1 mM, 100 μM, or 10 μM; plasmid DNA, agarose gel
Experimental: Topoisomerase II assay—Plasmid DNA (0.3 μg) was incubated at 37° C. with 4 units of purified recombinant human topoisomerase II in cleavage buffer (30 mM Tris.HCl, pH 7.6, 60 mM NaCl, 3 mM ATP, 15 mM mercaptoethanol, 8 mM MgCl2) with or without the addition of test compound (at 1 mM, 100 μM, or 10 μM final concentration). Reactions were stopped by the immediate addition of SDS (1% w/v final). Samples were treated with proteinase K (30 min at 37° C.) and extracted twice with an equal volume of […] CHCl3/i-amyl alcohol. […] Topoisomerase II inhibition was judged by the production of linear plasmid DNA, representing trapped cleavage intermediate, and by the ratio of substrate (spercoiled DNA) to product (relaxed DNA). A relaxation assay was performed identically, except that the reaction buffer was optimised for the detection of catalysis rather than cleavage, i.e. only 2 units of enzyme were used per sample. The reaction buffer was 50 mM Tris.HCl, pH 8, 120 mM KCl, 0.5 mM ATP, 0.5 mM dithiothreitol, 10 mM MgCl2. Topoisomerase II inhibition was judged by the ratio of substrate (supercoiled DNA) to product (relaxed DNA).

purified recombinant human topoisomerase II, sequence (P11388 whole entry): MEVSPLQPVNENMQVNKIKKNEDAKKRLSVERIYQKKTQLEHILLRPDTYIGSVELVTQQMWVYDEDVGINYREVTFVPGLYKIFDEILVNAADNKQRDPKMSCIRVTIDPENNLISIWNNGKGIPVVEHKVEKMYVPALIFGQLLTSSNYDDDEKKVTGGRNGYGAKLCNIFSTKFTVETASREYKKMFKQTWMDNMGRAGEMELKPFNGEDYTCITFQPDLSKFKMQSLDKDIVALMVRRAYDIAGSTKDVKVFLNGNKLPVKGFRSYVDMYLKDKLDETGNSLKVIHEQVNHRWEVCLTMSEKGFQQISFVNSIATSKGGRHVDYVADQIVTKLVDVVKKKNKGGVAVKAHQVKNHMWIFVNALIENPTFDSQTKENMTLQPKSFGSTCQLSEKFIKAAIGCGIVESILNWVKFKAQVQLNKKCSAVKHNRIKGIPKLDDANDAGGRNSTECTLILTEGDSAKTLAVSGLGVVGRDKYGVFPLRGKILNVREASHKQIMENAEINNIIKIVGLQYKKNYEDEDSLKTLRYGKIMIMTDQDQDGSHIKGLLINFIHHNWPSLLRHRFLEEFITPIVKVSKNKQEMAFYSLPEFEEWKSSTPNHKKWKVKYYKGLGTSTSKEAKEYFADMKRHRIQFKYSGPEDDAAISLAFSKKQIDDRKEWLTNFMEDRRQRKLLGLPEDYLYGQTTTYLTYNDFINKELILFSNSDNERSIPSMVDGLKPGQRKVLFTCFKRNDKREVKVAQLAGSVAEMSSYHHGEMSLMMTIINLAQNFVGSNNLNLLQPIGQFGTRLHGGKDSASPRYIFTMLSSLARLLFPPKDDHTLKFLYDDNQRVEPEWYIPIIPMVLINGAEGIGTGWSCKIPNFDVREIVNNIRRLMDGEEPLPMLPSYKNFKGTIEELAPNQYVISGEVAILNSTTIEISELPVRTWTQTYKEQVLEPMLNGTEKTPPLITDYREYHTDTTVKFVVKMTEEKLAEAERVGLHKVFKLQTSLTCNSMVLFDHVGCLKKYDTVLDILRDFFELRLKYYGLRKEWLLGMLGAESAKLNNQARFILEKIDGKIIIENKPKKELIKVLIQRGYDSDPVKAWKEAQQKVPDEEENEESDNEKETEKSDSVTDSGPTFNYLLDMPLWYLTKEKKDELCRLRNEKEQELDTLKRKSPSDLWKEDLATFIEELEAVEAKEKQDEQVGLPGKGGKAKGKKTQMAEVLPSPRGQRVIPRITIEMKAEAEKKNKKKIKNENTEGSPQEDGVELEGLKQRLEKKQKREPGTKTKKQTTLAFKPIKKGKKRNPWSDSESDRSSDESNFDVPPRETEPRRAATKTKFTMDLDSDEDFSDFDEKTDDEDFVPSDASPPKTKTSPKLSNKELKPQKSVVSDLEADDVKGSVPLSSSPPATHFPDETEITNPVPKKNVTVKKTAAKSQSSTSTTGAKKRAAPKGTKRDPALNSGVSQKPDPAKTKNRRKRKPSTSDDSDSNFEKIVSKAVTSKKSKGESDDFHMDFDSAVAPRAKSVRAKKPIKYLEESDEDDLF

**Q.** What does the source list for `CC(=O)O[C@H]1C(=O)[C@@]2(C)[C@H]([C@H](OC(=O)c3ccccc3)[C@]3(O)C[C@H](OC(=O)[C@H](O)[C@@H](NC(=O)c4ccccc4)c4ccccc4)C(C)=C1C3(C)C)[C@]1(OC(C)=O)CO[C@@H]1C[C@@H]2O` [Paclitaxel]?
**A.** IC50 (MCF7 breast carcinoma; 72 h, MCF7, Exposure time 3 d): < 15 nM; IC50 (MCF7 breast carcinoma; MCF7, Exposure time 1 h, then washed, viable cells after total 72 h): 40 nM; IC50 (A549 lung carcinoma; 72 h, A549, Exposure time 3 d): < 15 nM; IC50 (A549 lung carcinoma; A549, Exposure time 1 h, then washed, viable cells after total 72 h): 28 nM; IC50 (CH1Taxol^R): 5.8 nM; IC50 (LIM1215): 5.8 nM; IC50 (DLD-1): 54 nM; IC50 (BE): < 2.5 nM; IC50 (COLO205): 2.6 nM; IC50 (HCT116): < 2.5 nM; IC50 (SKOV-3): 10 nM; IC50 (LS174T): 8.5 nM; IC50 (A2780): < 2.5 nM; IC50 (A2780Cis^R): 5.1 nM; IC50 (CH1Dox^R): 540 nM; IC50 (KM12): 2.85 nM; IC50 (CH1): 4.15 nM; IC50 (HT29): < 2.5 nM

**Q.** For `CCC(C)[C@H](NC(=O)[C@H](CCCCN)NC(=O)[C@@H](NC(=O)[C@H](CCC(N)=O)NC(=O)[C@H](CCCNC(=N)N)NC(=O)[C@@H](N)CSC1CC(=O)N(CCC(=O)O[C@H]2c3cc4c(cc3[C@@H](c3cc(OC)c(OC)c(OC)c3)[C@H]3C(=O)OC[C@@H]32)OCO4)C1=O)C(C)CC)C(=O)N[C@@H](Cc1c[nH]c2ccccc12)C(=O)N[C@@H](Cc1ccccc1)C(=O)N[C@@H](CCC(N)=O)C(=O)N[C@@H](CC(N)=O)C(=O)N[C@@H](CCCNC(=N)N)C(=O)N[C@@H](CCCNC(=N)N)C(=O)N[C@@H](CCSC)C(=O)N[C@@H](CCCCN)C(=O)N[C@@H](Cc1c[nH]c2ccccc12)C(=O)N[C@@H](CCCCN)C(=O)N[C@@H](CCCCN)C(N)=O` (stereo partly shown) [A], which “Intact test compound in supernatant of solubilised cells” value (HL60 cells; RP-HPLC and MALDI-TOF MS) is on record?
**A.** Intact test compound was identified

**Q.** What about the “Test compound in DMSO extracts of pellets” value (HL60 cells; insoluble fraction) of the same compound?
**A.** no test compound was detected

**Q.** What about the half-life [1] of the same compound?
**A.** > 24 h

**Q.** Which half-life [1] does the source give for `CCC(C)[C@H](NC(=O)[C@H](CCCCN)NC(=O)[C@@H](NC(=O)[C@H](CCC(N)=O)NC(=O)[C@H](CCCNC(=N)N)NC(=O)[C@@H](N)CSCC(=O)O[C@H]1c2cc3c(cc2[C@@H](c2cc(OC)c(OC)c(OC)c2)[C@H]2C(=O)OC[C@@H]21)OCO3)C(C)CC)C(=O)N[C@@H](Cc1c[nH]c2ccccc12)C(=O)N[C@@H](Cc1ccccc1)C(=O)N[C@@H](CCC(N)=O)C(=O)N[C@@H](CC(N)=O)C(=O)N[C@@H](CCCNC(=N)N)C(=O)N[C@@H](CCCNC(=N)N)C(=O)N[C@@H](CCSC)C(=O)N[C@@H](CCCCN)C(=O)N[C@@H](Cc1c[nH]c2ccccc12)C(=O)N[C@@H](CCCCN)C(=O)N[C@@H](CCCCN)C(=O)O` (stereo partly shown) [B] here?
**A.** 0.667 h

**Q.** With `CC[C@H](C)[C@H](NC(=O)[C@H](CCCCN)NC(=O)[C@@H](NC(=O)[C@H](CCC(N)=O)NC(=O)[C@@H](N)CCCNC(=N)N)[C@@H](C)CC)C(=O)N[C@@H](Cc1c[nH]c2ccccc12)C(=O)N[C@@H](Cc1ccccc1)C(=O)N[C@@H](CCC(N)=O)C(=O)N[C@@H](CC(N)=O)C(=O)N[C@@H](CCCNC(=N)N)C(=O)N[C@@H](CCCNC(=N)N)C(=O)N[C@@H](CCSC)C(=O)N[C@@H](CCCCN)C(=O)N[C@@H](Cc1c[nH]c2ccccc12)C(=O)N[C@@H](CCCCN)C(=O)N[C@@H](CCCCN)C(N)=O` as the compound, how does the half-life [2] read?
**A.** > 12 h

**Q.** With `COc1cc([C@@H]2c3cc4c(cc3[C@@H](O[C@@H]3O[C@@H]5CO[C@@H](C)O[C@H]5[C@H](O)[C@H]3O)[C@H]3COC(=O)[C@H]23)OCO4)cc(OC)c1O` [Etoposide] as the compound, how does the IC50 (CH1Taxol^R) read?
**A.** 145 nM

**Q.** What about the IC50 (LIM1215) of the same compound?
**A.** 330 nM

**Q.** What about the IC50 (DLD-1) of the same compound?
**A.** 570 nM

**Q.** And the IC50 (BE)?
**A.** 1100 nM

**Q.** And the IC50 (COLO205)?
**A.** 800 nM

**Q.** What about the IC50 (HCT116) of the same compound?
**A.** 1900 nM

**Q.** And the IC50 (SKOV-3)?
**A.** 13000 nM

**Q.** And the IC50 (LS174T)?
**A.** 460 nM

**Q.** And the IC50 (A2780)?
**A.** 210 nM

**Q.** What about the IC50 (A2780Cis^R) of the same compound?
**A.** 680 nM

**Q.** What about the IC50 (CH1Dox^R) of the same compound?
**A.** 6600 nM

**Q.** And the IC50 (KM12)?
**A.** 580 nM

**Q.** What about the IC50 (CH1) of the same compound?
**A.** 165 nM

**Q.** What about the IC50 (HT29) of the same compound?
**A.** 2600 nM

**Q.** For “4′-Demethyl-4-[4″-aminoanilino-(succinimidopropionoyl)-(H-Cys-βAla-Arg-Arg-Met-Lys-Trp-Lys-Lys-NH2)]epipodophyllotoxin”, which Activity observed [3] is on record?
**A.** I

**Q.** Which half-life [2] does the source give for `CC[C@@H](C)[C@@H](NC(=O)[C@@H](CCCCN)NC(=O)[C@H](NC(=O)[C@@H](CCC(N)=O)NC(=O)[C@H](N)CCCNC(=N)N)[C@H](C)CC)C(=O)N[C@H](Cc1c[nH]c2ccccc12)C(=O)N[C@H](Cc1ccccc1)C(=O)N[C@H](CCC(N)=O)C(=O)N[C@H](CC(N)=O)C(=O)N[C@H](CCCNC(=N)N)C(=O)N[C@H](CCCNC(=N)N)C(=O)N[C@H](CCSC)C(=O)N[C@H](CCCCN)C(=O)N[C@H](Cc1c[nH]c2ccccc12)C(=O)N[C@H](CCCCN)C(=O)N[C@H](CCCCN)C(N)=O` [H-D-Arg-D-Gln-D-Ile-D-Lys-D-Ile-D-Trp-D-Phe-D-Gln-D-Asn-D-Arg-D-Arg-D-Met-D-Lys-D-Trp-D-Lys-D-Lys-NH3] here?
**A.** > 24 h

**Q.** For `CC[C@H](C)[C@H](NC(=O)[C@H](CCCCN)NC(=O)[C@@H](NC(=O)[C@H](CCC(N)=O)NC(=O)[C@H](CCCNC(=N)N)NC(=O)[C@@H](N)CSC1CC(=O)N(CCC(=O)O[C@@H](C(=O)O[C@H]2C[C@@]3(O)[C@@H](OC(=O)c4ccccc4)[C@@H]4[C@]5(OC(C)=O)CO[C@@H]5C[C@H](O)[C@@]4(C)C(=O)[C@H](OC(C)=O)C(=C2C)C3(C)C)[C@@H](NC(=O)c2ccccc2)c2ccccc2)C1=O)[C@@H](C)CC)C(=O)N[C@@H](Cc1c[nH]c2ccccc12)C(=O)N[C@@H](Cc1ccccc1)C(=O)N[C@@H](CCC(N)=O)C(=O)N[C@@H](CC(N)=O)C(=O)N[C@@H](CCCNC(=N)N)C(=O)N[C@@H](CCCNC(=N)N)C(=O)N[C@@H](CCSC)C(=O)N[C@@H](CCCCN)C(=O)N[C@@H](Cc1c[nH]c2ccccc12)C(=O)N[C@@H](CCCCN)C(=O)N[C@@H](CCCCN)C(N)=O` (single isomer, unassigned) [C], which half-life ([1]; cell-conditioned tissue culture medium (FCS in DMEM)) is on record?
**A.** > 12 h

**Q.** With “H-RRMKWKK-NH2 [H-Arg-Arg-Met-Lys-Trp-Lys-Lys-NH2]” as the compound, how does the half-life [2] read?
**A.** 3 h

**Q.** With RQIKIWFQNRRMKWK [15mer peptide] as the compound, how does the “Serum stability of vector in words” value [2] read?
**A.** survive for several h

**Q.** Which Activity observed [3] does the source give for `COc1cc([C@@H]2c3cc4c(cc3[C@@H](Nc3ccc(N)cc3)[C@H]3COC(=O)[C@H]23)OCO4)cc(OC)c1O` [4′-Demethyl-4-(4″-aminoanilino)epipodophyllotoxin] here?
**A.** I

From patent publication US6992169B2, “Carrier based drug delivery system” (Cyclacel Limited, priority 1998, dated 2006)
